Results from patent US20080241904A1, “PROCESS FOR PRODUCING ISOMALTOSE AND USES THEREOF” (KABUSHIKI KAISHA HAYASHIBARA SEIBUTSU KAGAKU KENKYUJO, priority 2001, published 2008).

Tests used:
Type in all cases: biochemical
[1] = test system: α-isomaltosylglucosaccharide-forming enzyme from Bacillus globisporus C11 strain; experiment: Specificity of saccharide transferring reaction acceptor, enzyme of Strain C11; details: 1.6% acceptor, 4% PINE-DEX #100 as donor, one unit/g donor, 30° C., pH 6.0, 24 hours; GLC or HPLC
Experimental: (§1) Using different saccharides, it was tested whether the saccharides were used as saccharide transferring reaction acceptors for the α-isomaltosylglucosaccharide-forming enzyme. A 1.6% solution, as a solution of saccharide transferring reaction acceptor, of D-glucose, D-xylose, L-xylose, D-galactose, D-fructose, D-mannose, D-arabinose, D-fucose, L-sorbose, L-rhamnose, methyl-α-glucopyranoside (methyl-α-glucose), methyl-β-glucopyranoside ([…]), N-acetyl-glucosamine, sorbitol, α,α-trehalose, isomaltose, isomaltotriose, cellobiose, gentibiose, maltitol, lactose, sucrose, α-cyclodextrin, β-cyclodextrin, or γ-cyclodextrin, was prepared. To each solution with a saccharide concentration was added “PINE-DEX #100”, a partial starch hydrolysate, as a saccharide donor, to give a concentration of 4%, and admixed with one unit/g saccharide donor, d.s.b., of either of purified specimens of α-isomaltosylglucosaccharide-forming enzyme from Bacillus globisporus C9 strain obtained by the method in Experiment 2-1, Bacillus globisporus C11 strain obtained by the method in Experiment 4-1. The resulting mixture solutions were incubated at 30° C. and pH 6.0 except that the enzyme from Arthrobacter globiformis A19 strain was incubated at pH 8.4 for 24 hours. The reaction mixtures of the post-enzymatic reactions were analyzed on gas chromatography (abbreviated as “GLC” hereinafter) for monosaccharides and disaccharides as acceptors, and on HPLC for trisaccharides as acceptors to confirm whether these saccharides could be used as their saccharide transferring reaction acceptors. In the case of performing GLC, the following apparatuses and conditions are used: GLC apparatus, “GC-16A” commercialized by Shimadzu Corporation, Tokyo, Japan; column, a stainless-steel column, 3 mm in diameter and 2 m in length, packed with 2% “SILICONE OV-17/CHROMOSOLV W”, commercialized by GL Sciences Inc., Tokyo, Japan; carrier gas, nitrogen gas at a flow rate of 40 ml/min under temperature conditions of increasing from 160° C. to 320° C. at an increasing temperature rate of 7.5° C./min; and detection, a hydrogen flame ionization detector.
(§2) In the case of HPLC analysis, the apparatuses and conditions used were: HPLC apparatus, “CCPD” commercialized by Tosoh Corporation, Tokyo, Japan; column, “ODS-AQ-303” commercialized by YMC Co., Ltd., Tokyo, Japan; eluent, water at a flow rate of 0.5 ml/min; and detection, a differential refractometer.

[2] = test system: α-isomaltosylglucosaccharide-forming enzyme from Bacillus globisporus C9 strain; experiment: Specificity of saccharide transferring reaction acceptor, enzyme of Strain C9; details: 1.6% acceptor, 4% PINE-DEX #100 as donor, one unit/g donor, 30° C., pH 6.0, 24 hours; GLC or HPLC
Experimental: as §1, §2

[3] = test system: α-isomaltosylglucosaccharide-forming enzyme from Bacillus globisporus C11; experiment: Action of α-isomaltosylglucosaccharide-forming enzyme on saccharides as substrates (TLC), enzyme of Strain C11; parameters: key: −: it showed no change; +: it showed a slight reduction of the color of substrate spot and the formation of other reaction product; ++: it showed a high reduction of the color of substrate spot and the formation of other reaction product; +++: it showed a substantial disappearance of the color of substrate spot and the formation of other reaction product; details: two units/g substrate, substrate 2% (w/v), 30° C., pH 6.0, 24 hours
Experimental: (§3) The action of α-isomaltosylglucosaccharide-forming enzyme on saccharides as substrates was tested. First, a solution of maltose, maltotriose, maltotetraose, maltopentaose, maltohexaose, maltoheptaose, isomaltose, isomaltotriose, panose, isopanose, α,α-trehalose (may be abbreviated as “trehalose” hereinafter), kojibiose, nigerose, neotrehalose, cellobiose, gentibiose, maltitol, maltotriitol, lactose, sucrose, erlose, selaginose, maltosyl glucoside, or isomaltosyl glucoside was prepared. To each of the above solutions was added two units/g substrate of the purified specimen of α-isomaltosylglucosaccharide-forming enzyme from Bacillus globisporus C9 in Experiment 2-1 or Bacillus globisporus C11 in Experiment 4-1, and each resulting solution was adjusted to give a substrate concentration of 2% (w/v) and incubated at 30° C. and pH 6.0 for 24 hours. The solutions before and after the enzymatic reactions were respectively subjected to thin-layer chromatography (abbreviated as “TLC” hereinafter). TLC was carried out in such a manner of separating saccharides by developing the solutions twice each using, as a developer, a mixture solution of n-butanol, pyridine, and water (=6:4:1), and, as a thin-layer plate, “[…] 60”, an aluminum plate (20×20 cm) for TLC commercialized by Merck & Co., Inc., Rahway, USA.; detecting the total saccharides in each mixture solution by spraying a mixture of sulfuric acid and methanol onto the aluminum plates to develop color of the total saccharides and detecting non-reducing saccharides in each mixture solution by the diphenylamine-aniline method.

[4] = test system: α-isomaltosylglucosaccharide-forming enzyme from Bacillus globisporus C9; experiment: Action of α-isomaltosylglucosaccharide-forming enzyme on saccharides as substrates (TLC), enzyme of Strain C9; parameters: key: −: it showed no change; +: it showed a slight reduction of the color of substrate spot and the formation of other reaction product; ++: it showed a high reduction of the color of substrate spot and the formation of other reaction product; +++: it showed a substantial disappearance of the color of substrate spot and the formation of other reaction product; details: two units/g substrate, substrate 2% (w/v), 30° C., pH 6.0, 24 hours
Experimental: as §3

Molecule | Product of saccharide transferring reaction, Enzyme of Strain C11 [1] | Product of saccharide transferring reaction, Enzyme of Strain C9 [2] | Enzymatic action, Enzyme of Strain C11 [3] | Enzymatic action, Enzyme of Strain C9 [4]
O=C[C@H](O)[C@@H](O)[C@H](O[C@@H]1O[C@H](CO)[C@@H](O)[C@H](O)[C@H]1O)[C@H](O)CO [Cellobiose, cellobiose] | ++ (a saccharide-transferred product was detected in an amount of at least ten percent through transferring reaction to acceptor) | ++ (a saccharide-transferred product was detected in an amount of at least ten percent through transferring reaction to acceptor) | − | −
OC[C@H]1O[C@@](CO)(O[C@H]2O[C@H](CO)[C@@H](O[C@H]3O[C@H](CO)[C@@H](O)[C@H](O)[C@H]3O)[C@H](O)[C@H]2O)[C@@H](O)[C@@H]1O [Erlose, erlose] |  |  | + | +
OC[C@H]1O[C@@H](OC[C@H]2OC(O)[C@H](O)[C@@H](O)[C@@H]2O)[C@H](O)[C@@H](O)[C@@H]1O (some centres unmarked) [Gentibiose, gentibiose] | ++ (a saccharide-transferred product was detected in an amount of at least ten percent through transferring reaction to acceptor) | ++ (a saccharide-transferred product was detected in an amount of at least ten percent through transferring reaction to acceptor) | − | −
OC[C@H]1O[C@H](OC[C@H]2OC(O)[C@H](O)[C@@H](O)[C@@H]2O)[C@H](O)[C@@H](O)[C@@H]1O (some centres unmarked) [Isomaltose, isomaltose] | ++ (a saccharide-transferred product was detected in an amount of at least ten percent through transferring reaction to acceptor) | ++ (a saccharide-transferred product was detected in an amount of at least ten percent through transferring reaction to acceptor) | − | −
OC[C@H]1O[C@H](O[C@H]2[C@H](O)[C@@H](O)[C@@H](OC[C@H]3OC(O)[C@H](O)[C@@H](O)[C@@H]3O)O[C@@H]2CO)[C@H](O)[C@@H](O)[C@@H]1O (some centres unmarked) [Isopanose, isopanose] |  |  | ++ | ++
OC[C@H]1O[C@H](O[C@H]2C(O)O[C@H](CO)[C@@H](O)[C@@H]2O)[C@H](O)[C@@H](O)[C@@H]1O (some centres unmarked) [Kojibiose, kojibiose] |  |  | + | +
OC[C@H]1O[C@H](O[C@H]2[C@H](O)[C@@H](O)[C@H](O)O[C@@H]2CO)[C@H](O)[C@@H](O)[C@@H]1O [Maltose, maltose] |  |  | + | +
OC[C@H]1O[C@H](O[C@H]2O[C@H](CO)[C@@H](O[C@H]3O[C@H](CO)[C@@H](O)[C@H](O)[C@H]3O)[C@H](O)[C@H]2O)[C@H](O)[C@@H](O)[C@@H]1O [Maltosylglucoside, maltosyl glucoside] |  |  | ++ | ++
OC[C@H]1O[C@H](O[C@H]2[C@H](O)[C@@H](O)[C@@H](O[C@H]3[C@H](O)[C@@H](O)[C@@H](O[C@H]4[C@H](O)[C@@H](O)C(O)O[C@@H]4CO)O[C@@H]3CO)O[C@@H]2CO)[C@H](O)[C@@H](O)[C@@H]1O (some centres unmarked) [Maltotetraose, maltotetraose] |  |  | +++ | +++
OC[C@@H](O)[C@@H](O[C@H]1O[C@H](CO)[C@@H](O[C@H]2O[C@H](CO)[C@@H](O)[C@H](O)[C@H]2O)[C@H](O)[C@H]1O)[C@H](O)[C@@H](O)CO [Maltotriitol, maltotriitol] |  |  | + | +
OC[C@H]1O[C@@H](O[C@H]2O[C@H](CO)[C@@H](O)[C@H](O)[C@H]2O)[C@H](O)[C@@H](O)[C@@H]1O [Neotrehalose, neotrehalose] |  |  | + | +
OC[C@H]1O[C@H](O[C@H]2[C@H](O)[C@@H](CO)OC(O)[C@@H]2O)[C@H](O)[C@@H](O)[C@@H]1O (some centres unmarked) [Nigerose, nigerose] |  |  | + | +
OC[C@H]1O[C@H](OC[C@H]2O[C@H](O[C@H]3[C@H](O)[C@@H](O)C(O)O[C@@H]3CO)[C@H](O)[C@@H](O)[C@@H]2O)[C@H](O)[C@@H](O)[C@@H]1O (some centres unmarked) [Panose, panose] |  |  | − | −
OC[C@H]1O[C@H](O[C@H]2O[C@H](CO)[C@@H](O)[C@H](O)[C@H]2O[C@H]2O[C@H](CO)[C@@H](O)[C@H](O)[C@H]2O)[C@H](O)[C@@H](O)[C@@H]1O [Selaginose, selaginose] |  |  | − | −
isomaltosyl glucoside [Isomaltosylglucoside] |  |  | − | −
maltoheptaose |  |  | +++ | +++
maltohexaose |  |  | +++ | +++
maltopentaose |  |  | +++ | +++
maltotriose |  |  | ++ | ++
